Where two headings read alike, the source gives them in different places.
Assays:
PKCδ = target: T1, PKCδ (Homo sapiens, UniProt Q05655); assay: Kinome profiler screen; assay type: biochemical; details: at 20,000 nM inhibitor; kinase activity remaining
T1 construct: purchased Millipore KinaseProfiler

[1] = target: T2, PI3 Kinase (p110α/p65α)(m) (Mus musculus, UniProt P42337); assay: Kinome profiler screen; assay type: biochemical; details: at 20,000 nM inhibitor; kinase activity remaining
T2 construct: purchased Millipore KinaseProfiler

[2] = target: T3, PI3 Kinase (p110α/p85α)(m) (Mus musculus, UniProt P42337); assay: Kinome profiler screen; assay type: biochemical; details: at 20,000 nM inhibitor; kinase activity remaining
T3 construct: purchased Millipore KinaseProfiler

GRK7 = target: T4, GRK7 (Homo sapiens, UniProt Q8WTQ7); assay: Kinome profiler screen; assay type: biochemical
T4 construct: purchased Millipore KinaseProfiler

PKCθ = target: T5, PKCθ (Homo sapiens, UniProt Q04759); assay: Kinome profiler screen; assay type: biochemical; details: at 20,000 nM inhibitor; kinase activity remaining
T5 construct: purchased Millipore KinaseProfiler

Met(Y1248C) = target: T6, Met(Y1248C) (Homo sapiens, UniProt P08581, Y1230C); assay: Kinome profiler screen; assay type: biochemical; details: at 20,000 nM inhibitor; kinase activity remaining
T6 construct: purchased Millipore KinaseProfiler

TrkB = target: T7, TrkB (Homo sapiens, UniProt Q16620); assay: Kinome profiler screen; assay type: biochemical
T7 construct: purchased Millipore KinaseProfiler

PDGFRα(D842V) = target: T8, PDGFRα(D842V) (Homo sapiens, UniProt P16234, D842V); assay: Kinome profiler screen; assay type: biochemical; details: at 20,000 nM inhibitor; kinase activity remaining
T8 construct: purchased Millipore KinaseProfiler

Pim-1 = target: T9, Pim-1 (Homo sapiens, UniProt P11309); assay: Kinome profiler screen; assay type: biochemical; details: at 20,000 nM inhibitor; kinase activity remaining
T9 construct: purchased Millipore KinaseProfiler

Met(Y1248H) = target: T10, Met(Y1248H) (Homo sapiens, UniProt P08581, Y1230H); assay: Kinome profiler screen; assay type: biochemical; details: at 20,000 nM inhibitor; kinase activity remaining
T10 construct: purchased Millipore KinaseProfiler

NEK11 = target: T11, NEK11 (Homo sapiens, UniProt Q8NG66); assay: Kinome profiler screen; assay type: biochemical; details: at 20,000 nM inhibitor; kinase activity remaining
T11 construct: purchased Millipore KinaseProfiler

ALK4 = target: T12, ALK4 (Homo sapiens, UniProt P36896); assay: Kinome profiler screen; assay type: biochemical; details: at 20,000 nM inhibitor; kinase activity remaining
T12 construct: purchased Millipore KinaseProfiler

MKK7β = target: T13, MKK7β (Homo sapiens, UniProt O14733); assay: Kinome profiler screen; assay type: biochemical; details: at 20,000 nM inhibitor; kinase activity remaining
T13 construct: purchased Millipore KinaseProfiler

Bmx = target: T14, Bmx (Homo sapiens, UniProt P51813); assay: Kinome profiler screen; assay type: biochemical; details: at 20,000 nM inhibitor; kinase activity remaining
T14 construct: purchased Millipore KinaseProfiler

PAK3 = target: T15, PAK3 (Homo sapiens, UniProt O75914); assay: Kinome profiler screen; assay type: biochemical; details: at 20,000 nM inhibitor; kinase activity remaining
T15 construct: purchased Millipore KinaseProfiler

Flt1 = target: T16, Flt1 (Homo sapiens, UniProt P17948); assay: Kinome profiler screen; assay type: biochemical; details: for activity at 20 µM: at 20,000 nM inhibitor, kinase activity remaining
T16 construct: purchased Millipore

Tec(h) activated = target: T17, Tec(h) activated (Homo sapiens, UniProt P42680); assay: Kinome profiler screen; assay type: biochemical; details: at 20,000 nM inhibitor; kinase activity remaining
T17 construct: purchased Millipore KinaseProfiler

BV-2 cells = assay: IL-1β production in BV-2 cells stimulated with TLR ligands; assay type: cell-based, murine; details: ligands for TLR2, TLR4, TLR7/8, TLR9
Fes = target: T18, Fes (Homo sapiens, UniProt P07332); assay: Kinome profiler screen; assay type: biochemical; details: at 20,000 nM inhibitor; kinase activity remaining
T18 construct: purchased Millipore KinaseProfiler

CaMKIδ = target: T19, CaMKIδ (Homo sapiens, UniProt Q8IU85); assay: Kinome profiler screen; assay type: biochemical; details: at 20,000 nM inhibitor; kinase activity remaining
T19 construct: purchased Millipore KinaseProfiler

STK33 = target: T20, STK33 (Homo sapiens, UniProt Q9BYT3); assay: Kinome profiler screen; assay type: biochemical; details: at 20,000 nM inhibitor; kinase activity remaining
T20 construct: purchased Millipore KinaseProfiler

ROCK-II = target: T21, ROCK-II (Homo sapiens, UniProt O75116); assay: Kinome profiler screen; assay type: biochemical; details: at 20,000 nM inhibitor; kinase activity remaining
T21 construct: purchased Millipore KinaseProfiler

CDK2/cyclinA = target: T22, CDK2/cyclinA (Homo sapiens, UniProt P24941); assay: Kinome profiler screen; assay type: biochemical; details: at 20,000 nM inhibitor; kinase activity remaining
T22 construct: purchased Millipore KinaseProfiler

FGFR1 = target: T23, FGFR1 (Homo sapiens, UniProt P11362); assay: Kinome profiler screen; assay type: biochemical; details: at 20,000 nM inhibitor; kinase activity remaining
T23 construct: purchased Millipore KinaseProfiler

EphA8 = target: T24, EphA8 (Homo sapiens, UniProt P29322); assay: Kinome profiler screen; assay type: biochemical; details: at 20,000 nM inhibitor; kinase activity remaining
T24 construct: purchased Millipore KinaseProfiler

PI3K-C2α = target: T25, PI3K-C2α (Homo sapiens, UniProt O00443); assay: Kinome profiler screen; assay type: biochemical; details: for activity at 20 µM: at 20,000 nM inhibitor, kinase activity remaining
T25 construct: purchased Millipore

PI3 Kinase (p110β/p85α) = target: T26, PI3 Kinase (p110β/p85α) (Homo sapiens, UniProt P42338); assay: Kinome profiler screen; assay type: biochemical; details: at 20,000 nM inhibitor; kinase activity remaining
T26 construct: purchased Millipore KinaseProfiler

Flt3 = target: T27, Flt3 (Homo sapiens, UniProt P36888); assay: Kinome profiler screen; assay type: biochemical; details: at 20,000 nM inhibitor; kinase activity remaining
T27 construct: purchased Millipore KinaseProfiler

JNK3 = JNK3 (Homo sapiens, UniProt P53779); assay: Kinome profiler screen; assay type: biochemical; details: for activity at 20 µM: at 20,000 nM inhibitor, kinase activity remaining
Blk(m) = target: T28, Blk(m) (Mus musculus, UniProt P16277); assay: Kinome profiler screen; assay type: biochemical; details: at 20,000 nM inhibitor; kinase activity remaining
T28 construct: purchased Millipore KinaseProfiler

PKD2 = target: T29, PKD2 (Homo sapiens, UniProt Q9BZL6); assay: Kinome profiler screen; assay type: biochemical; details: at 20,000 nM inhibitor; kinase activity remaining
T29 construct: purchased Millipore KinaseProfiler

PKA = target: T30, PKA (Homo sapiens, UniProt P17612); assay: Kinome profiler screen; assay type: biochemical; details: at 20,000 nM inhibitor; kinase activity remaining
T30 construct: purchased Millipore KinaseProfiler

Mer = target: T31, Mer (Homo sapiens, UniProt Q12866); assay: Kinome profiler screen; assay type: biochemical; details: at 20,000 nM inhibitor; kinase activity remaining
T31 construct: purchased Millipore KinaseProfiler

c-RAF = target: T32, c-RAF (Homo sapiens, UniProt P04049); assay: Kinome profiler screen; assay type: biochemical; details: for activity at 20 µM: at 20,000 nM inhibitor, kinase activity remaining
T32 construct: purchased Millipore

PDGFRβ = target: T33, PDGFRβ (Homo sapiens, UniProt P09619); assay: Kinome profiler screen; assay type: biochemical; details: at 20,000 nM inhibitor; kinase activity remaining
T33 construct: purchased Millipore KinaseProfiler

BTK = target: T34, BTK (Homo sapiens, UniProt Q06187); assay: Kinome profiler screen; assay type: biochemical; details: at 20,000 nM inhibitor; kinase activity remaining
T34 construct: purchased Millipore KinaseProfiler

MAPK2 = target: T35, MAPK2 (Homo sapiens, UniProt P28482); assay: Kinome profiler screen; assay type: biochemical; details: at 20,000 nM inhibitor; kinase activity remaining
T35 construct: purchased Millipore KinaseProfiler

CHK2(I157T) = target: T36, CHK2(I157T) (Homo sapiens, UniProt O96017, I157T); assay: Kinome profiler screen; assay type: biochemical; details: at 20,000 nM inhibitor; kinase activity remaining
T36 construct: purchased Millipore KinaseProfiler

[3] = at 20,000 nM inhibitor, kinase activity remaining, read-out: % Activity

Sequence of JNK3 (P53779 whole entry): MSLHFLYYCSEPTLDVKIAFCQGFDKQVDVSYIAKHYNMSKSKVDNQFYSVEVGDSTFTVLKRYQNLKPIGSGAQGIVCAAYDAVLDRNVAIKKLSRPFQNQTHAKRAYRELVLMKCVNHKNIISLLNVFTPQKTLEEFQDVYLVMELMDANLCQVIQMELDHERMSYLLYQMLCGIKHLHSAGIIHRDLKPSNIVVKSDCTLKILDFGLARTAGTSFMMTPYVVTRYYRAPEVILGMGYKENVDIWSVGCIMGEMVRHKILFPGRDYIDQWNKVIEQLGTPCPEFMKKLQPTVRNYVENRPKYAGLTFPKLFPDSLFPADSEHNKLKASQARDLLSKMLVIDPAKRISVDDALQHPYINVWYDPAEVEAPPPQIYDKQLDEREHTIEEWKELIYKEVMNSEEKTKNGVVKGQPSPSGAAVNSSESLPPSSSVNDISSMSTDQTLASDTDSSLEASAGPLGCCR
T16 sequence (P17948 27-1338): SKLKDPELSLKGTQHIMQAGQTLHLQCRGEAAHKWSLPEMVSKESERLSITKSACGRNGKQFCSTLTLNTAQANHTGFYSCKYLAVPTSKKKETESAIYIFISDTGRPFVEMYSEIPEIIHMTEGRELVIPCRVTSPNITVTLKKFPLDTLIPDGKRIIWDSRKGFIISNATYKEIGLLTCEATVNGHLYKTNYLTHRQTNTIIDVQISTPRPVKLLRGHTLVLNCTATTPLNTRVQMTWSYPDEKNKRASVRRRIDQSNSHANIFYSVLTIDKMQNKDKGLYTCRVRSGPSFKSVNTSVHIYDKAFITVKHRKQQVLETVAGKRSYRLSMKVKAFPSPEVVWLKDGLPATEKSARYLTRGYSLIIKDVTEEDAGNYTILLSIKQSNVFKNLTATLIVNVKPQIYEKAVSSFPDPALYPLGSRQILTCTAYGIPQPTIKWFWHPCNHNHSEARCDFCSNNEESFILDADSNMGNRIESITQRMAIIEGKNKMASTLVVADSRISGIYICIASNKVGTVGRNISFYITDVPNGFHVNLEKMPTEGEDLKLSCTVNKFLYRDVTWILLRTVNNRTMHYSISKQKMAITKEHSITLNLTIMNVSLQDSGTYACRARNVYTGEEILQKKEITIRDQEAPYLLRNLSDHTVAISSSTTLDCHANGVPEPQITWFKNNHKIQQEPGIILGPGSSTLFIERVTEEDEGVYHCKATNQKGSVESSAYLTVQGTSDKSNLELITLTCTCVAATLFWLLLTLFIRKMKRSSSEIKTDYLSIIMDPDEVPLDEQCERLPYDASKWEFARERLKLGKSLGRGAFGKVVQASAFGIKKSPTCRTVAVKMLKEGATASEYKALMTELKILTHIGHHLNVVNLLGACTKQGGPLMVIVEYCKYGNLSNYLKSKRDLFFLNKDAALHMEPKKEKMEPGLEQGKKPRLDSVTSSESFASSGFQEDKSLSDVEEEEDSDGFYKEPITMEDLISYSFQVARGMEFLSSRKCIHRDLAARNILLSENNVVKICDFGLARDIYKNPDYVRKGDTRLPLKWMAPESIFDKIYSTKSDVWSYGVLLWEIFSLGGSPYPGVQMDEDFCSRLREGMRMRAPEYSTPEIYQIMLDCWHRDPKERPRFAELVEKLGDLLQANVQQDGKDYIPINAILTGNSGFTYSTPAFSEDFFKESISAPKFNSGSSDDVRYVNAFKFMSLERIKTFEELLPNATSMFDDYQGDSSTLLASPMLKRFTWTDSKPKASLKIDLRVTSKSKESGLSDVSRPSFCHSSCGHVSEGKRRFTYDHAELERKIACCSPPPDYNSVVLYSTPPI
T32 sequence (P04049 whole entry): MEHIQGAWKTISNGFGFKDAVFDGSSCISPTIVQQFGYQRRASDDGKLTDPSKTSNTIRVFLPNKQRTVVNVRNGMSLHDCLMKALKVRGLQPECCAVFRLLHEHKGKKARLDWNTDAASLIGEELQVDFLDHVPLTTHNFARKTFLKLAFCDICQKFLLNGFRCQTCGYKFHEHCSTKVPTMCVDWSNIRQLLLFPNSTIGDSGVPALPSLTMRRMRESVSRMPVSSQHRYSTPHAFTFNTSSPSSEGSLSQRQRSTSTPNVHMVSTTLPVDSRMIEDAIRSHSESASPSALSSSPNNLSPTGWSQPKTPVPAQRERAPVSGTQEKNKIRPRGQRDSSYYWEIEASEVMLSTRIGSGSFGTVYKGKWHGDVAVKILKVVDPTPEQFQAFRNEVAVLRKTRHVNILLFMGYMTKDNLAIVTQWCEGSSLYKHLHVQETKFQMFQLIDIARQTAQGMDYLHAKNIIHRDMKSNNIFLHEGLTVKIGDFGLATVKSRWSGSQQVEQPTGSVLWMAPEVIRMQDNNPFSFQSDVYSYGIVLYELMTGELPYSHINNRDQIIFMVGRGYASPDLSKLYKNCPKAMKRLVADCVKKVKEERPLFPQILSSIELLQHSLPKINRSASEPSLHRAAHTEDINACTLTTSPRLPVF
T25 sequence (O00443 whole entry): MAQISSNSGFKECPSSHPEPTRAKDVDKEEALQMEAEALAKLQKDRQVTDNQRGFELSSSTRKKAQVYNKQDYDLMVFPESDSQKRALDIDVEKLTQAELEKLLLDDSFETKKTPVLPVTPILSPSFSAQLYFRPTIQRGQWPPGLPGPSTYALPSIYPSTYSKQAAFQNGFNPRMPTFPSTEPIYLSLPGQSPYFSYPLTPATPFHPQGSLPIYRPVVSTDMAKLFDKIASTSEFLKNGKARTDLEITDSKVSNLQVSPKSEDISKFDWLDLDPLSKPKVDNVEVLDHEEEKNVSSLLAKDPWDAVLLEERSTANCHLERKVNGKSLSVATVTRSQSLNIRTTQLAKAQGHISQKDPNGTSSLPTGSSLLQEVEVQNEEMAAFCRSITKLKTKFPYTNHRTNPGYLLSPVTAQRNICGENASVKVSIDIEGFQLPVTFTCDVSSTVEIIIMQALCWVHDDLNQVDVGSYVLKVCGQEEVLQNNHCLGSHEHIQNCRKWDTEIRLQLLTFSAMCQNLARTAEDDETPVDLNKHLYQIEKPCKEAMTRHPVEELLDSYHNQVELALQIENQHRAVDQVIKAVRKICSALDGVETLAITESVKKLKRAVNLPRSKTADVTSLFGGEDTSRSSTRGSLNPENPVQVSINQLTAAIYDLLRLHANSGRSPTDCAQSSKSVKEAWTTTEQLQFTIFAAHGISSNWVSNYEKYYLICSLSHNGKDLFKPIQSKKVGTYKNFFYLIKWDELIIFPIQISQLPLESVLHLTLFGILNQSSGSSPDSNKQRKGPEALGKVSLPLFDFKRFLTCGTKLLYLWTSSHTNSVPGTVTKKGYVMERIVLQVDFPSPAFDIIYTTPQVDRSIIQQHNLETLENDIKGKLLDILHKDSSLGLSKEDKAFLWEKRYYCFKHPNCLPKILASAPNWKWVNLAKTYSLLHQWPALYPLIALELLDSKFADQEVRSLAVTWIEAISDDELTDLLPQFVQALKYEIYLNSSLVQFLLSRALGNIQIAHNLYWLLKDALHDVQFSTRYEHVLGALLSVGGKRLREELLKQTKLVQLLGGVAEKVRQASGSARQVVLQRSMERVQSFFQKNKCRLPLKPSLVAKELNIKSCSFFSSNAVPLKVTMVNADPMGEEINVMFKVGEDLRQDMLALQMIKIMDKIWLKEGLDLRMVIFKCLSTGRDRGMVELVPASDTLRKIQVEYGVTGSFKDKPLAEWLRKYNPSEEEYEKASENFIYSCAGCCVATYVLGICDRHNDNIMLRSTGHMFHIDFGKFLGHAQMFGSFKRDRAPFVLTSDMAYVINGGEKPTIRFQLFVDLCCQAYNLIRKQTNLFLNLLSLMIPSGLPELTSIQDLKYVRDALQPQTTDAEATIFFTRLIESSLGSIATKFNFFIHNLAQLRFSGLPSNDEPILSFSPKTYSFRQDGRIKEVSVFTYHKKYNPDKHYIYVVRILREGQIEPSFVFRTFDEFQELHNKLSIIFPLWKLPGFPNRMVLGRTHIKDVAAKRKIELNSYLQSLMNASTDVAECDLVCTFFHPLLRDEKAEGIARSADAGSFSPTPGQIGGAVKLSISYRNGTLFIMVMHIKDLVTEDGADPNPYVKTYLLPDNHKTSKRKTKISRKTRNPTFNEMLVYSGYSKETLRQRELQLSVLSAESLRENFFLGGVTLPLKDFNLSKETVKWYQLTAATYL
T27 sequence (P36888 27-993): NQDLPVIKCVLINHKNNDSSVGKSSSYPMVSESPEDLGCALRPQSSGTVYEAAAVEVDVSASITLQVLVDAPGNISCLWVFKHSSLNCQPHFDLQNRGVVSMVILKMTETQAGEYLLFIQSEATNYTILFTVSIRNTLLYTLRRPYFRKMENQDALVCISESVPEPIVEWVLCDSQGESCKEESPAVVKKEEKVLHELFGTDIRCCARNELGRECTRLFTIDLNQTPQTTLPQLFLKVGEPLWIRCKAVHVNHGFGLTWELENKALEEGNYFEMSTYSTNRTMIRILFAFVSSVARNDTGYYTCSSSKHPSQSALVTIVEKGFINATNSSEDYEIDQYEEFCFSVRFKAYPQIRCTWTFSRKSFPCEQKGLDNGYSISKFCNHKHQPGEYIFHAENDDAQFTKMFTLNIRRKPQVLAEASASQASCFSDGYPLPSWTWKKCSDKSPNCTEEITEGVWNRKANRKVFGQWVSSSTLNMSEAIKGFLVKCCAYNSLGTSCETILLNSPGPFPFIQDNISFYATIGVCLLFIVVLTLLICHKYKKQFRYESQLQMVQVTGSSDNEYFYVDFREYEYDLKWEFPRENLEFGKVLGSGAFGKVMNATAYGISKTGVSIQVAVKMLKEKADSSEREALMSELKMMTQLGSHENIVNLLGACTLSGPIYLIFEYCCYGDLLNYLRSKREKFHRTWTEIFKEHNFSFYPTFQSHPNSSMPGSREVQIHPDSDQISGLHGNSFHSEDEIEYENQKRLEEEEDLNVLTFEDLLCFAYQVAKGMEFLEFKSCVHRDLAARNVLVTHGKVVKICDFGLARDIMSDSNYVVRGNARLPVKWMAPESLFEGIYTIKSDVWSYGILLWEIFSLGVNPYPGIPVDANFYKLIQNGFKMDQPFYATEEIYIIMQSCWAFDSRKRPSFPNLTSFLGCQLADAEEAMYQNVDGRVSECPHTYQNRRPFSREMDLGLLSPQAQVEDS

`CN(C)c1cc(-c2ccncc2)c(-c2ccc3ccccc3c2)nn1` [MW108, N, N-dimethyl-6-(naphthalen-2-yl)-5-(pyridin-4-yl)pyridazin-3-amine] gave an activity at 20 µM (PKCδ) of 101%, an activity at 20 µM [1] of 101% and an activity at 20 µM [2] of 101%. It also gave an activity at 20 µM (GRK7) of 98%, an activity at 20 µM (PKCθ) of 107% and an activity at 20 µM (Met(Y1248C)) of 84%. It also gave an activity at 20 µM (TrkB) of 78%, an activity at 20 µM (PDGFRα(D842V)) of 89% and an activity at 20 µM (Pim-1) of 103%. For the same molecule, the activity at 20 µM (Met(Y1248H)) was 88%, the activity at 20 µM (NEK11) was 108% and the activity at 20 µM (ALK4) was 95%. For the same molecule, the activity at 20 µM (MKK7β) was 122%, the activity at 20 µM (Bmx) was 87% and the activity at 20 µM (PAK3) was 78%. For the same molecule, the IC50 (Flt1) was > 30 µM, the activity at 20 µM (Flt1) was 38% and the activity at 20 µM (Tec(h) activated) was 89%. For the same molecule, the “IL-1β production with diverse TLR ligands” value (BV-2 cells) was “suppressed IL-1β production”, the activity at 20 µM (Fes) was 111% and the activity at 20 µM (CaMKIδ) was 97%. The activity at 20 µM (STK33) was 106%, the activity at 20 µM (ROCK-II) was 99% and the activity at 20 µM (CDK2/cyclinA) was 79%. For the same molecule, the activity at 20 µM (FGFR1) was 93%, the activity at 20 µM (EphA8) was 95% and the IC50 (PI3K-C2α) was > 30 µM. It also gave an activity at 20 µM (PI3K-C2α) of 29%, an activity at 20 µM (PI3 Kinase (p110β/p85α)) of 100% and an activity at 20 µM (Flt3) of 108%. The IC50 (JNK3) was 1.26 µM, the activity at 20 µM (JNK3) was 5% and the activity at 20 µM (Blk(m)) was 88%. For the same molecule, the activity at 20 µM (PKD2) was 78%, the activity at 20 µM (PKA) was 74% and the activity at 20 µM (Mer) was 98%. It also gave an IC50 (c-RAF) of 9.12 µM, an activity at 20 µM (c-RAF) of 27% and an activity at 20 µM (PDGFRβ) of 99%. It also gave an activity at 20 µM (BTK) of 97%, an activity at 20 µM (MAPK2) of 113% and an activity at 20 µM (CHK2(I157T)) of 101%.

Molecule `CN(C)c1cc(-c2ccncc2)c(-c2cccc3ccccc23)nn1` [MW181, N,N-dimethyl-6-(naphthalen-1-yl)-5-(pyridin-4-yl)pyridazin-3-amine] has an activity at 20 µM (PKCδ) of 92%, an activity at 20 µM [1] of 100% and an activity at 20 µM [2] of 102%. For the same molecule, the activity at 20 µM (GRK7; [3]) was 102%, the activity at 20 µM (PKCθ) was 98% and the activity at 20 µM (Met(Y1248C)) was 100%. For the same molecule, the activity at 20 µM (TrkB; [3]) was 109%, the activity at 20 µM (PDGFRα(D842V)) was 104% and the activity at 20 µM (Pim-1) was 107%. The activity at 20 µM (Met(Y1248H)) was 103%, the activity at 20 µM (NEK11) was 121% and the activity at 20 µM (ALK4) was 101%. The activity at 20 µM (MKK7β) was 116%, the activity at 20 µM (Bmx) was 108% and the activity at 20 µM (PAK3) was 122%. The activity at 20 µM (Flt1) was 96%, the activity at 20 µM (Tec(h) activated) was 98% and the “IL-1β production with diverse TLR ligands” value (BV-2 cells) was “suppressed IL-1β production”. It also gave an activity at 20 µM (Fes) of 100%, an activity at 20 µM (CaMKIδ) of 103% and an activity at 20 µM (STK33) of 99%. The activity at 20 µM (ROCK-II) was 108%, the activity at 20 µM (CDK2/cyclinA) was 92% and the activity at 20 µM (FGFR1) was 103%. The activity at 20 µM (EphA8) was 91%, the activity at 20 µM (PI3K-C2α) was 99% and the activity at 20 µM (PI3 Kinase (p110β/p85α)) was 98%. The activity at 20 µM (Flt3) was 93%, the activity at 20 µM (JNK3) was 12% and the IC50 (JNK3; concentration-dependent follow-up of profiler hit, read-out: IC50) was 2.4 µM. The activity at 20 µM (Blk(m)) was 100%, the activity at 20 µM (PKD2) was 78% and the activity at 20 µM (PKA) was 142%. For the same molecule, the activity at 20 µM (Mer) was 100%, the activity at 20 µM (c-RAF) was 70% and the activity at 20 µM (PDGFRβ) was 99%. It also gave an activity at 20 µM (BTK) of 98%, an activity at 20 µM (MAPK2) of 97% and an activity at 20 µM (CHK2(I157T)) of 100%.

From article PMC3694096, “Development of Novel In Vivo Chemical Probes to Address CNS Protein Kinase Involvement in Synaptic Dysfunction” (PLoS ONE, 2013)
